From the NIST ThermoML archive (doi:10.1016/j.fluid.2008.03.015)
Several values for one entry are separate records, joined by “and”; a condition that tells them apart may be missing. Identical values can stand only once.

Conditions: Liquid, Closed cell (Static) method

ClCCCl [1,2-dichloroethane]
Conditions | vapor or sublimation pressure
284.86 K | 5.38 kPa
284.87 K | 5.37 kPa
294.83 K | 8.96 kPa
294.84 K | 8.95 kPa
304.82 K | 14.33 kPa and 14.32 kPa
314.81 K | 22.18 kPa
314.83 K | 22.18 kPa
324.82 K | 33.28 kPa
324.83 K | 33.27 kPa
334.79 K | 48.45 kPa
334.82 K | 48.46 kPa
344.81 K | 67.97 kPa
344.82 K | 67.98 kPa
354.89 K | 94.95 kPa and 94.94 kPa

CC(C)OC(C)C [diisopropyl ether]
Conditions | vapor or sublimation pressure
284.93 K | 10.74 kPa and 10.75 kPa
294.9 K | 17.21 kPa
294.91 K | 17.21 kPa
304.87 K | 26.57 kPa
304.89 K | 26.58 kPa
314.86 K | 39.71 kPa
314.87 K | 39.72 kPa
324.85 K | 57.64 kPa
324.87 K | 57.65 kPa
334.85 K | 81.41 kPa and 81.42 kPa
344.84 K | 112.36 kPa
344.85 K | 112.39 kPa
354.87 K | 151.81 kPa
354.88 K | 151.82 kPa

CCOCC [diethyl ether]
Conditions | vapor or sublimation pressure
255.47 K | 10.11 kPa
255.48 K | 10.13 kPa
255.5 K | 10.14 kPa
265.44 K | 17.06 kPa
265.45 K | 17.07 kPa
274.86 K | 26.9 kPa
274.87 K | 26.91 kPa
284.83 K | 41.98 kPa
284.84 K | 42 kPa
294.77 K | 62.89 kPa
294.78 K | 62.93 kPa
304.75 K | 91.58 kPa and 91.56 kPa
304.76 K | 91.6 kPa
314.74 K | 129.3 kPa and 129.45 kPa
314.75 K | 129.42 kPa
324.89 K | 179.51 kPa and 179.65 kPa and 179.77 kPa

COC(C)(C)C [2-methoxy-2-methylpropane]
Conditions | vapor or sublimation pressure
274.9 K | 11.59 kPa
274.91 K | 11.59 kPa
284.82 K | 18.55 kPa
294.8 K | 28.78 kPa
294.81 K | 28.78 kPa
304.79 K | 43.24 kPa and 43.26 kPa
314.75 K | 62.95 kPa
314.76 K | 62.97 kPa
324.9 K | 89.66 kPa and 89.69 kPa
334.85 K | 124.02 kPa
344.84 K | 167.14 kPa
344.85 K | 167.57 kPa
354.82 K | 221.79 kPa and 221.39 kPa
